In patent US12516365B2, “Biocide compositions compatible with enzyme biosensors and methods of use thereof” (priority 2019, dated 2026):
Counter-ions that a name gives are not always drawn.

Assays:
Creatinine Sensor = test: Screen of biocides/antibiotics for compatibility with the Creatinine Sensor (Creatinine Sensor Slope loss); type: biochemical; parameters: key: “Fail” indicates the compound inhibited Creatinine Sensor Slope; “Pass” indicates there was no significant effect on Creatinine Sensor Slope
From the text: In one embodiment, a biocide candidate may be injected into, for example, one PCS-B bag after about one week of cartridge use life, and then any changes in sensor slopes over the next week or two, especially any increase in the rate of slope decrease, may be observed. During this time, aqueous solutions with high substrate concentrations may be tested to ensure that enzymes are still able to convert all substrate to products in the allotted time (e.g., about one minute).
In one embodiment, multiple cartridges assembled with, for example, PCS-B bags containing a candidate biocide may be tested for a prolonged period of time (e.g., 20-30 days) that corresponds to the useful cartridge lifespan (which may vary depending upon the cartridge type tested). In this case the cartridge starts the hydration process, which generally lasts about 50 minutes, with the biocide already in the solution bag (e.g., PCS-B). […] Over the course of 3 weeks, in addition to running aqueous controls that have established acceptance ranges, whole human blood may also be tested in order to simulate normal customer use.
A variety of candidate molecules were screened as described above to determine whether they were compatible with the Creatinine Sensor, i.e. whether there was a significant effect on Creatinine Sensor Slope.

[1] = test system: ChemSTAT creatinine sensor (creatininase, creatinase and sarcosine oxidase); test: Creatinine and creatine sensor slopes over time with biocide in Process Control Solution (PCS); type: biochemical; settings: for Creatinine and creatine slopes over time after addition to PCS: 20 mg/L added to PCS-B after stable slopes for more than one week
Procedure: FIGS. 2A-2B show plots of creatinine and creatine slopes over time in the presence of either MIT or polymyxin B, respectively. […] Stable slopes were first established for more than one week before 300 mg/L MIT (methyl isothiazolinone) or 20 mg/L polymyxin B was added to the Process Control Solution (PCS) B (e.g., PCS-B).
The present disclosure discovered that Polymyxin B and Polymyxin E (aka, Colistin Sulfate) were compatible with a ChemSTAT creatinine sensor that utilized two hydrolase class enzymes (e.g., creatininase and creatinase) and sarcosine oxidase to measure creatinine. When included in Process Control Solutions (PCS) at a concentration sufficient to kill microbes (e.g., bacteria, in particular gram negative rods including various strains of Pseudomonas), the slope of the sensor remained high enough over 21 days to continually allow accurate measurement of creatinine in human blood and aqueous control solutions even at the upper end of the linear range where reduced enzyme activity could result in low recovery of substrate.
MIT is the most common biocide used in the blood gas industry for microbial contamination, and is known to be compatible with oxidase class enzymes such as glucose oxidase and lactate oxidase.
Importantly, the creatinine slope performed equivalently with colistin in PCS bags (see FIG. 3, left) to cartridges with PCS bags protected only with gentamicin (see FIG. 3, right). In this plot, no bacterial contamination was observed on control or test biocide PCS bags nor was there any evidence of enzyme inhibition and therefore performance is similar.

| Molecule | Pass/Fail (Creatinine Sensor Slope Loss) (Creatinine Sensor) | Inhibition/inactivation of creatininase, creatinase and sarcosine oxidase [1] | further results |
| --- | --- | --- | --- |
| NCC[C@H](O)C(=O)N[C@@H]1C[C@H](N)[C@@H](O[C@H]2O[C@H](CN)[C@@H](O)[C@H](O)[C@H]2O)[C@H](O)[C@H]1O[C@H]1O[C@H](CO)[C@@H](O)[C@H](N)[C@H]1O [Amikacin sulfate] | Pass |  |  |
| CC(C)(O/N=C(\C(=O)N[C@@H]1C(=O)N2C(C(=O)[O-])=C(C[n+]3ccccc3)CS[C@H]12)c1csc(N)n1)C(=O)O [Ceftazidime] | Pass |  |  |
| CNC1C(O)[C@@H](O[C@H]2C(N)C[C@H](N)C(O[C@H]3OC(C(C)N)CCC3N)C2O)OC[C@]1(C)O (some centres unmarked) [Gentamicin sulfate] | Pass |  | Creatinine slope performance over time in PCS ([1]; full use life of three weeks): maintained sufficient creatinine slope |
| Streptomycin | Pass |  |  |
| Cn1sc2ccccc2c1=O [MBIT, methylbenzisothiazolinone] | Fail | irreversibly inhibited |  |
| C[C@H]1COc2c(N3CCN(C)CC3)c(F)cc3c(=O)c(C(=O)O)cn1c23 [Levofloxacin] | Pass |  |  |
| Cn1sc(Cl)cc1=O [Cl-MIT, chlorinatedmethyl- isonthiazolinone] | Fail | irreversibly inhibited |  |
| COc1cc(Cc2cnc(N)nc2N)cc(OC)c1OC [Trimethoprim] | Fail | irreversibly inhibited |  |
| CC1(C)NC(=O)NC1=O [Dantogard Plus, dimethylhydantoin] | Fail | irreversibly inhibited |  |
| CCN1CCN(C(=O)N[C@@H](C(=O)N[C@@H]2C(=O)N3C(C(=O)O)C(C)(C)S[C@H]23)c2ccccc2)C(=O)C1=O (some centres unmarked) [Piperacillin] | Pass |  |  |
| CCCCNC(=O)OCC#CI [Omacide IPBC, iodopropynylbutylcarbamate] | Fail | irreversibly inhibited |  |
| Oc1cccc2cccnc12 [8-hydroxyquinoline] | Fail |  |  |
| Polymyxin B | Pass |  | Creatinine and creatine slopes over time after addition to PCS [1]: no effect; Creatinine and creatine slopes over time after addition to PCS ([1]; listed as polymyxin B): does not causes a rapid decay; Compatibility with ChemSTAT creatinine sensor ([1]; in PCS at a concentration sufficient to kill microbes, slope over 21 days): compatible |
| CCn1cc(C(=O)O)c(=O)c2cc(F)c(N3CCNCC3)cc21 [Norfloxacin] | Fail | irreversibly inhibited |  |
| O=c1[nH]sc2ccccc12 [BIT, benisothiazolinone] | Fail | irreversibly inhibited |  |
| Oc1ccccc1-c1ccccc1 [2-phenyl phenol] | Fail |  |  |
| CN[C@@H]1[C@H](O)[C@H](NC)[C@H]2O[C@@]3(O)C(=O)C[C@@H](C)O[C@H]3O[C@@H]2[C@H]1O [Spectinomycin] | Pass |  |  |
| CC1(C)S[C@@H]2[C@H](NC(=O)C(C(=O)O)c3ccccc3)C(=O)N2C1C(=O)O (some centres unmarked) [Carbenicillin disodium] | Pass |  |  |
